Experimental data published in the supplement of paper PMC4862054.

Test system: CAL-51
Experiment: normalised response (% of control), CellTiter-Glo; higher = more viable cells (100 = DMSO, 0 = benzethonium chloride kill control)
Conditions: incubation time: 72 h
Outline: (§1)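 Two readouts were taken after 72 h: CellTox Green fluorescence (485/520 nm) first, then CellTiter-Glo luminescence after 10 min at room temperature. Breast cancer cell lines had been seeded as 20 µl suspension into 384-well plates holding compound at 5 concentrations in 10-fold steps across a compound-specific 10,000-fold range. Each value is a normalised signal at a single concentration, with plates scaled to 0.1 % DMSO (100) and a positive kill control (0).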

Compound	normalised response [%]
COc1cc2c(N3CCN(C(=O)Nc4ccc(OC(C)C)cc4)CC3)ncnc2cc1OCCCN1CCCCC1 [Tandutinib] (1000 nM)	117
C[C@@H](C(=O)O)c1ccc(-c2ccccc2)c(F)c1 [Tarenflurbil] (10000 nM)	120

Test system: CAL-85-1
Experiment: as above
Conditions: incubation time: 72 h
Outline: as §1

Compound	normalised response [%]
NC1(c2ccc(-c3nc4ccn5c(=O)[nH]nc5c4cc3-c3ccccc3)cc2)CCC1 [MK-2206] (1000 nM)	86.1
O=C(c1cc(Cc2n[nH]c(=O)c3ccccc23)ccc1F)N1CCN(C(=O)C2CC2)CC1 [Olaparib] (10000 nM)	87.5
COc1cc2c(N3CCN(C(=O)Nc4ccc(OC(C)C)cc4)CC3)ncnc2cc1OCCCN1CCCCC1 [Tandutinib] (1000 nM)	98
C[C@@H](C(=O)O)c1ccc(-c2ccccc2)c(F)c1 [Tarenflurbil] (10000 nM)	98.8

Test system: DU-4475
Experiment: as above
Conditions: incubation time: 72 h
Outline: as §1

Compound	normalised response [%]
NC1(c2ccc(-c3nc4ccn5c(=O)[nH]nc5c4cc3-c3ccccc3)cc2)CCC1 [MK-2206] (1000 nM)	87.3
O=C(c1cc(Cc2n[nH]c(=O)c3ccccc23)ccc1F)N1CCN(C(=O)C2CC2)CC1 [Olaparib] (10000 nM)	85.7
COc1cc2c(N3CCN(C(=O)Nc4ccc(OC(C)C)cc4)CC3)ncnc2cc1OCCCN1CCCCC1 [Tandutinib] (1000 nM)	97.7
C[C@@H](C(=O)O)c1ccc(-c2ccccc2)c(F)c1 [Tarenflurbil] (10000 nM)	96.7

Test system: HCC1143
Experiment: as above
Conditions: incubation time: 72 h
Outline: as §1

Compound	normalised response [%]
NC1(c2ccc(-c3nc4ccn5c(=O)[nH]nc5c4cc3-c3ccccc3)cc2)CCC1 [MK-2206] (1000 nM)	84
O=C(c1cc(Cc2n[nH]c(=O)c3ccccc23)ccc1F)N1CCN(C(=O)C2CC2)CC1 [Olaparib] (10000 nM)	87.3
COc1cc2c(N3CCN(C(=O)Nc4ccc(OC(C)C)cc4)CC3)ncnc2cc1OCCCN1CCCCC1 [Tandutinib] (1000 nM)	95.7
C[C@@H](C(=O)O)c1ccc(-c2ccccc2)c(F)c1 [Tarenflurbil] (10000 nM)	98.7

Test system: HCC1599
Experiment: as above
Conditions: incubation time: 72 h
Outline: as §1

Compound	normalised response [%]
NC1(c2ccc(-c3nc4ccn5c(=O)[nH]nc5c4cc3-c3ccccc3)cc2)CCC1 [MK-2206] (1000 nM)	72.6
O=C(c1cc(Cc2n[nH]c(=O)c3ccccc23)ccc1F)N1CCN(C(=O)C2CC2)CC1 [Olaparib] (10000 nM)	95.3
COc1cc2c(N3CCN(C(=O)Nc4ccc(OC(C)C)cc4)CC3)ncnc2cc1OCCCN1CCCCC1 [Tandutinib] (1000 nM)	106
C[C@@H](C(=O)O)c1ccc(-c2ccccc2)c(F)c1 [Tarenflurbil] (10000 nM)	92.4

Test system: HCC1937
Experiment: as above
Conditions: incubation time: 72 h
Outline: as §1

Compound	normalised response [%]
NC1(c2ccc(-c3nc4ccn5c(=O)[nH]nc5c4cc3-c3ccccc3)cc2)CCC1 [MK-2206] (1000 nM)	86
O=C(c1cc(Cc2n[nH]c(=O)c3ccccc23)ccc1F)N1CCN(C(=O)C2CC2)CC1 [Olaparib] (10000 nM)	91.6
COc1cc2c(N3CCN(C(=O)Nc4ccc(OC(C)C)cc4)CC3)ncnc2cc1OCCCN1CCCCC1 [Tandutinib] (1000 nM)	100
C[C@@H](C(=O)O)c1ccc(-c2ccccc2)c(F)c1 [Tarenflurbil] (10000 nM)	96.9

Test system: HDQ-P1
Experiment: as above
Conditions: incubation time: 72 h
Outline: as §1

Compound	normalised response [%]
NC1(c2ccc(-c3nc4ccn5c(=O)[nH]nc5c4cc3-c3ccccc3)cc2)CCC1 [MK-2206] (1000 nM)	81.4
O=C(c1cc(Cc2n[nH]c(=O)c3ccccc23)ccc1F)N1CCN(C(=O)C2CC2)CC1 [Olaparib] (10000 nM)	87.8
COc1cc2c(N3CCN(C(=O)Nc4ccc(OC(C)C)cc4)CC3)ncnc2cc1OCCCN1CCCCC1 [Tandutinib] (1000 nM)	99.1
C[C@@H](C(=O)O)c1ccc(-c2ccccc2)c(F)c1 [Tarenflurbil] (10000 nM)	98.5

Test system: Hs578T
Experiment: as above
Conditions: incubation time: 72 h
Outline: as §1

Compound	normalised response [%]
NC1(c2ccc(-c3nc4ccn5c(=O)[nH]nc5c4cc3-c3ccccc3)cc2)CCC1 [MK-2206] (1000 nM)	87.2
O=C(c1cc(Cc2n[nH]c(=O)c3ccccc23)ccc1F)N1CCN(C(=O)C2CC2)CC1 [Olaparib] (10000 nM)	84.6
COc1cc2c(N3CCN(C(=O)Nc4ccc(OC(C)C)cc4)CC3)ncnc2cc1OCCCN1CCCCC1 [Tandutinib] (1000 nM)	92.3
C[C@@H](C(=O)O)c1ccc(-c2ccccc2)c(F)c1 [Tarenflurbil] (10000 nM)	97.5

Test system: MCF-10A
Experiment: as above
Conditions: incubation time: 72 h
Outline: as §1

Compound	normalised response [%]
NC1(c2ccc(-c3nc4ccn5c(=O)[nH]nc5c4cc3-c3ccccc3)cc2)CCC1 [MK-2206] (1000 nM)	83.3
O=C(c1cc(Cc2n[nH]c(=O)c3ccccc23)ccc1F)N1CCN(C(=O)C2CC2)CC1 [Olaparib] (10000 nM)	92.8
COc1cc2c(N3CCN(C(=O)Nc4ccc(OC(C)C)cc4)CC3)ncnc2cc1OCCCN1CCCCC1 [Tandutinib] (1000 nM)	87
C[C@@H](C(=O)O)c1ccc(-c2ccccc2)c(F)c1 [Tarenflurbil] (10000 nM)	99.4

Test system: MDA-MB-231
Experiment: as above
Conditions: incubation time: 72 h
Outline: as §1

Compound	normalised response [%]
NC1(c2ccc(-c3nc4ccn5c(=O)[nH]nc5c4cc3-c3ccccc3)cc2)CCC1 [MK-2206] (1000 nM)	86.1
O=C(c1cc(Cc2n[nH]c(=O)c3ccccc23)ccc1F)N1CCN(C(=O)C2CC2)CC1 [Olaparib] (10000 nM)	77.2
COc1cc2c(N3CCN(C(=O)Nc4ccc(OC(C)C)cc4)CC3)ncnc2cc1OCCCN1CCCCC1 [Tandutinib] (1000 nM)	106
C[C@@H](C(=O)O)c1ccc(-c2ccccc2)c(F)c1 [Tarenflurbil] (10000 nM)	98.7

Test system: MDA-MB-436
Experiment: as above
Conditions: incubation time: 72 h
Outline: as §1

Compound	normalised response [%]
NC1(c2ccc(-c3nc4ccn5c(=O)[nH]nc5c4cc3-c3ccccc3)cc2)CCC1 [MK-2206] (1000 nM)	98.2
O=C(c1cc(Cc2n[nH]c(=O)c3ccccc23)ccc1F)N1CCN(C(=O)C2CC2)CC1 [Olaparib] (10000 nM)	62.2
COc1cc2c(N3CCN(C(=O)Nc4ccc(OC(C)C)cc4)CC3)ncnc2cc1OCCCN1CCCCC1 [Tandutinib] (1000 nM)	109
C[C@@H](C(=O)O)c1ccc(-c2ccccc2)c(F)c1 [Tarenflurbil] (10000 nM)	108

Test system: MDA-MB-453
Experiment: as above
Conditions: incubation time: 72 h
Outline: as §1

Compound	normalised response [%]
NC1(c2ccc(-c3nc4ccn5c(=O)[nH]nc5c4cc3-c3ccccc3)cc2)CCC1 [MK-2206] (1000 nM)	36.6
O=C(c1cc(Cc2n[nH]c(=O)c3ccccc23)ccc1F)N1CCN(C(=O)C2CC2)CC1 [Olaparib] (10000 nM)	144
COc1cc2c(N3CCN(C(=O)Nc4ccc(OC(C)C)cc4)CC3)ncnc2cc1OCCCN1CCCCC1 [Tandutinib] (1000 nM)	99.1
C[C@@H](C(=O)O)c1ccc(-c2ccccc2)c(F)c1 [Tarenflurbil] (10000 nM)	93.7

Test system: MDA-MB-468
Experiment: as above
Conditions: incubation time: 72 h
Outline: as §1

Compound	normalised response [%]
NC1(c2ccc(-c3nc4ccn5c(=O)[nH]nc5c4cc3-c3ccccc3)cc2)CCC1 [MK-2206] (1000 nM)	83
O=C(c1cc(Cc2n[nH]c(=O)c3ccccc23)ccc1F)N1CCN(C(=O)C2CC2)CC1 [Olaparib] (10000 nM)	69.5
COc1cc2c(N3CCN(C(=O)Nc4ccc(OC(C)C)cc4)CC3)ncnc2cc1OCCCN1CCCCC1 [Tandutinib] (1000 nM)	99.7
C[C@@H](C(=O)O)c1ccc(-c2ccccc2)c(F)c1 [Tarenflurbil] (10000 nM)	91.5

Test system: MFM-223
Experiment: as above
Conditions: incubation time: 72 h
Outline: as §1

Compound	normalised response [%]
NC1(c2ccc(-c3nc4ccn5c(=O)[nH]nc5c4cc3-c3ccccc3)cc2)CCC1 [MK-2206] (1000 nM)	46.9
O=C(c1cc(Cc2n[nH]c(=O)c3ccccc23)ccc1F)N1CCN(C(=O)C2CC2)CC1 [Olaparib] (10000 nM)	88.5
COc1cc2c(N3CCN(C(=O)Nc4ccc(OC(C)C)cc4)CC3)ncnc2cc1OCCCN1CCCCC1 [Tandutinib] (1000 nM)	98.8
C[C@@H](C(=O)O)c1ccc(-c2ccccc2)c(F)c1 [Tarenflurbil] (10000 nM)	92.8

Test system: SK-BR-3
Experiment: as above
Conditions: incubation time: 72 h
Outline: as §1

Compound	normalised response [%]
NC1(c2ccc(-c3nc4ccn5c(=O)[nH]nc5c4cc3-c3ccccc3)cc2)CCC1 [MK-2206] (1000 nM)	52.1
O=C(c1cc(Cc2n[nH]c(=O)c3ccccc23)ccc1F)N1CCN(C(=O)C2CC2)CC1 [Olaparib] (10000 nM)	78.7
COc1cc2c(N3CCN(C(=O)Nc4ccc(OC(C)C)cc4)CC3)ncnc2cc1OCCCN1CCCCC1 [Tandutinib] (1000 nM)	99
C[C@@H](C(=O)O)c1ccc(-c2ccccc2)c(F)c1 [Tarenflurbil] (10000 nM)	93.3
